Some results are limits rather than exact numbers.

In one assay the target is GPR84 (Homo sapiens, UniProt Q9NQS5). Briefly: GPR84 antagonistic activity, calcium flux (Fluo-4) assay with agonist 6-OAU. Type of assay: cell-based. The arrangement: expressed in transfected cells; host or cells: HEK293.
GPR84, sequence (Q9NQS5 whole entry): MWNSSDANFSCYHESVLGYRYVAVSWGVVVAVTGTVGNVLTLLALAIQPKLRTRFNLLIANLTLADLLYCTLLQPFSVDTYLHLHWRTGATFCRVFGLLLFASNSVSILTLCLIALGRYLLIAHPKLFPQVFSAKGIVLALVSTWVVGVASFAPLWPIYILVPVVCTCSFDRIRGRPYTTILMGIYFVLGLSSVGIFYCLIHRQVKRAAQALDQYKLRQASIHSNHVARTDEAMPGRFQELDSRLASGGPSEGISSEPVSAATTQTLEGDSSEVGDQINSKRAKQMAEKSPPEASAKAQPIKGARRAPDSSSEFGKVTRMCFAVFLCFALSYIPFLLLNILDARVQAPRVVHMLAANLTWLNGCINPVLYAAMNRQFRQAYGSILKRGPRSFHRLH
Details: not given
Here is the method: The human GPR84 cell line was obtained by transfecting a HEK293 cell line with a plasmid encoding GPR84 and Gα16 proteins. Fluorescent dye Fluo-4AM was purchased from Invitrogen.
Intracellular Ca^2+ ion is a very important second messenger of G protein-coupled receptor signaling pathway. […] Fluo-4 is a Ca^2+ ion-specific fluorescent probe that binds quantitatively to Ca^2+ ions and emits fluorescence.
Detection of receptor inhibitory effect by GPR84 antagonist: After incubated with fluorescent dye Fluo-4, GPR84 cells were incubated with different concentrations of antagonistic compounds for a period of time to occupy the binding site of agonist to GPR84 (antagonistic binding site). A certain concentration of agonist (6-n-octylaminouracil, 6-OAU) was added to compete with the antagonist compound for binding sites. […] The half-inhibitory concentration (IC50) of the compound was calculated by using GraphPad PRISM software.
The above ingredients were weighed and dissolved in ultrapure water. pH was adjusted to 7.4 by using hydrochloric acid or NaOH solution. The mixture was filtered and stored at 4° C. for one month.
The buffer was prepared on site.
The cells were seeded in a 96-well plate at a density of 4×10^4 cells/well. After 24 hours of culture, the culture medium was removed, and 40 μL of Fluo-4AM fluorescent staining solution was added to each well and incubated in a 37° C. incubator for 40 minutes. After the dye was aspirated and discarded, 50 μL of the tested compound was added and incubated at room temperature for 10 minutes.
In the case of `COc1cccc2c1Sc1ccccc1C=C2OP(=O)(O)Oc1cc(Cl)ccc1Cl` [LSX480], the half-inhibitory concentration (IC50) lay in the range of 100 to 1000 nM.

Turning to `COc1cccc2c1Sc1ccccc1C=C2OP(=O)(O)Oc1cc(C(C)C)ccc1C` [LSX468b], the IC50 is 100 to 1000 nM.

Take `COc1cccc2c1Sc1ccccc1C=C2OP(=O)(O)OC1CCOC1` (stereo not drawn) [LSX406]: the IC50 lay within 1000 to 10000 nM.

On to `COc1cccc2c1Sc1ccccc1C=C2OP(=O)(O)Oc1cc(C)ccc1C(C)C` [LSX468a], for which the 50% inhibitory concentration (IC50) lay in the range of 100 to 1000 nM.

Regarding `COc1cccc2c1Sc1ccccc1C=C2OP(=O)(O)Oc1ccc2ccccc2c1` [LSX462b], the IC50 lay in the range of 100 to 1000 nM.

In the case of `CCCCCc1cccc(OP(=O)(O)OC2=Cc3ccccc3Sc3c(OC)cccc32)c1` [LSX482b], the IC50 is below 100 nM.

Turning to `COc1cccc2c1Sc1ccccc1C=C2OP(=O)(O)Oc1c(C(C)C)cccc1C(C)C` [LSX496], the half-inhibitory concentration (IC50) lay in the range of 1000 to 10000 nM.

In the case of `CCCCCc1ccccc1OP(=O)(O)OC1=Cc2ccccc2Sc2c(OC)cccc21` [LSX482a], the IC50 lay within 100 to 1000 nM.

Regarding `COc1cccc2c1Sc1ccccc1C=C2OP(=O)(O)Oc1ccccc1C(C)C` [LSX454], the half-maximal inhibitory concentration (IC50) lay in the range of 1000 to 10000 nM.

As to `COc1cccc2c1Sc1ccccc1C=C2OP(=O)(O)Oc1cccc2ccccc12` [LSX462a], the IC50 lay within 100 to 1000 nM.

Consider `COc1cccc2c1Sc1ccccc1C=C2OP(=O)(O)Oc1ccc([N+](=O)[O-])cc1` [LSX457], for which the 50% inhibitory concentration (IC50) lay in the range of 1000 to 10000 nM.

On to `COc1cccc2c1Sc1ccccc1C=C2OP(=O)(O)Oc1ccc(Oc2ccccc2)cc1` [LSX504], for which the IC50 lay in the range of 1000 to 10000 nM.

For the molecule `COc1cccc2c1Sc1ccccc1C=C2OP(=O)(O)Oc1ccc(F)cc1` [LSX430], the concentration for half-maximal inhibition (IC50) fell in the range of 1000 to 10000 nM.

With `CCCCCc1cc(CCCCC)cc(OP(=O)(O)OC2=Cc3ccccc3Sc3c(OC)cccc32)c1` [LSX552], the 50% inhibitory concentration (IC50) fell in the range of 100 to 1000 nM.

For `CCCCCCCCP(=O)(O)OC1=Cc2ccccc2Sc2c(OC)cccc21` [LSX432], the half-inhibitory concentration (IC50) lay in the range of 100 to 1000 nM.

Take `CCCCCc1ccc(OP(=O)(O)OC2=Cc3ccccc3Sc3c(OC)cccc32)cc1` [LSX482c]: the concentration for half-maximal inhibition (IC50) lay within 100 to 1000 nM.

Consider `COc1cccc2c1Sc1ccccc1C=C2OP(=O)(O)Oc1ccc(Br)cc1` [LSX491a], for which the IC50 was in the range of 100 to 1000 nM.

Still in this assay, the particulars now being: HEK293 cells with GPR84 and Gα16; Fluo-4 calcium signal; agonist 6-OAU around EC80.
Turning to `CC1(C)[C@@H]2CC[C@@]1(C)[C@H](OP(=O)(O)OC1=Cc3c(Cl)cccc3Sc3ccccc31)C2` [LSX476g], the half-inhibitory concentration (IC50) was below 100 nM.

Still in this assay, the particulars now being: HEK293 cells with GPR84 and Gα16; Fluo-4 calcium signal; agonist 6-OAU around EC80; read-out: IC50.
Turning to `COc1cccc2c1Sc1ccccc1C=C2OP(=O)(O)N1CCC(C)(C)CC1` [LSX431], the concentration for half-maximal inhibition (IC50) is 1000 to 10000 nM.

The assay is the same for the next values; noted with them: IC50, HEK293 cells with GPR84 and Gα16; Fluo-4 calcium signal; agonist 6-OAU around EC80.
Regarding `CC1(C)[C@H]2CC[C@]1(C)[C@H](OP(=O)(O)OC1=Cc3ccccc3Sc3c(OC(F)(F)F)cccc31)C2` [LSX526a], the IC50 was 100 to 1000 nM.

For `COc1cccc2c1Sc1ccccc1C=C2OP(=O)(O)OCCCCCCCCF` [LSX466], the half-maximal inhibitory concentration (IC50) lay within 1000 to 10000 nM.

Turning to `COc1cccc2c1Sc1ccccc1C=C2OP(=O)(O)OC1CCC(C)CC1` (stereo not drawn) [LSX432-2c], the half-inhibitory concentration (IC50) lay in the range of 1000 to 10000 nM.

Consider `COc1cccc2c1Sc1ccccc1C=C2OP(=O)(O)O[C@@H]1CC[C@@]2(C)C(CC[C@H]3[C@@H]4CC[C@H]([C@H](C)CCC(=O)O)[C@@]4(C)CC[C@@H]32)C1` (stereo partly drawn) [LSX694], for which the half-maximal inhibitory concentration (IC50) is 100 to 1000 nM.

`CC1(C)[C@@H]2CC[C@@]1(C)[C@H](OP(=O)(O)OC1=Cc3c(Cl)cccc3Sc3ccccc31)C2` (racemic) [LSX476b]: the IC50 is below 100 nM.

Take `CC1(C)[C@@H]2CC[C@@](C)(C2)[C@@H]1OP(=O)(O)OC1=Cc2ccccc2Sc2c(OC(F)(F)F)cccc21` [LSX526j]: the IC50 was below 100 nM.

Turning to `CC1(C)[C@@H]2CC[C@@](C)(C2)[C@@H]1OP(=O)(O)OC1=Cc2ccccc2Sc2ccccc21` [LSX442j], the IC50 lay in the range of 1000 to 10000 nM.

Turning to `COc1cccc2c1Sc1ccccc1C=C2OP(=O)(O)OCCCCCCCCBr` [LSX527], the 50% inhibitory concentration (IC50) is 100 to 1000 nM.

For the molecule `COc1cccc2c1Sc1ccccc1C=C2OP(=O)(O)O[C@@H]1CC[C@@]2(C)[C@@H](C1)C[C@@H](O)[C@@H]1[C@@H]2C[C@H](O)[C@]2(C)[C@@H]([C@H](C)CCC(=O)O)CC[C@@H]12` [LSX726], the half-inhibitory concentration (IC50) lay in the range of 1000 to 10000 nM.

As for `COc1cccc2c1Sc1ccccc1C=C2OP(=O)(O)OC1C(C)(C)CCCC1(C)C` [LSX474-3], the IC50 was in the range of 100 to 1000 nM.

Consider `COc1cccc2c1Sc1ccccc1C=C2OP(=O)(O)OC1C2CC3CC(C2)CC1C3` (stereo not drawn) [LSX470b], for which the IC50 is 100 to 1000 nM.

On to `CC1(C)[C@H]2CC[C@]1(C)[C@H](OP(=O)(O)OC1=Cc3c(Cl)cccc3Sc3ccccc31)C2` (racemic) [LSX476d], for which the IC50 fell in the range of 100 to 1000 nM.

On to `COc1cccc2c1Sc1ccccc1C=C2OP(=O)(O)OC1CCC(C(C)(C)C)CC1` (stereo not drawn) [LSX474-2], for which the concentration for half-maximal inhibition (IC50) lay within 100 to 1000 nM.

In the case of `COc1cccc2c1Sc1ccccc1C=C2OP(=O)(O)OC1CCCCC1C` (stereo not drawn) [LSX432-2a], the IC50 fell in the range of 1000 to 10000 nM.

As for `COc1cccc2c1Sc1ccccc1C=C2OP(=O)(O)OCC1CC2CCC1C2` (stereo not drawn) [LSX444-2], the IC50 is 100 to 1000 nM.

Turning to `CC1(C)[C@H]2CC[C@]1(C)[C@H](OP(=O)(O)OC1=Cc3c(Cl)cccc3Sc3ccccc31)C2` [LSX476a], the IC50 was below 100 nM.

Take `CC1CC(C(C)(C)C)C(OP(=O)(O)OC2=Cc3c(Cl)cccc3Sc3ccccc32)C(C(C)(C)C)C1` (stereo not drawn) [LSX548]: the half-maximal inhibitory concentration (IC50) fell in the range of 1000 to 10000 nM.

For `COC(=O)CCCCCCCOP(=O)(O)OC1=Cc2ccccc2Sc2c(OC)cccc21` [LSX492], the IC50 is 1000 to 10000 nM.

`COc1cccc2c1Sc1ccccc1C=C2OP(=O)(O)OC12CC3CC(CC(C3)C1)C2` [LSX470a]: the half-maximal inhibitory concentration (IC50) fell in the range of 100 to 1000 nM.

Regarding `COc1cccc2c1Sc1ccccc1C=C2OP(=O)(O)OCCc1ccccc1` [LSX440], the half-maximal inhibitory concentration (IC50) is 1000 to 10000 nM.

Turning to `COc1cccc2c1Sc1ccccc1C=C2OP(=O)(O)OC` [LSX350], the half-inhibitory concentration (IC50) fell in the range of 1000 to 10000 nM.

Consider `CC1(C)[C@H]2CC[C@]1(C)[C@H](OP(=O)(O)OC1=Cc3c(F)cccc3Sc3ccccc31)C2` [LSX460a], for which the IC50 lay in the range of 100 to 1000 nM.

`CC1(C)[C@H]2CC[C@]1(C)[C@@H](OP(=O)(O)OC1=Cc3c(Cl)cccc3Sc3ccccc31)C2` [LSX476h]: the half-inhibitory concentration (IC50) was in the range of 100 to 1000 nM.

Take `CC/C=C\CCCCOP(=O)(O)OC1=Cc2ccccc2Sc2c(OC)cccc21` [LSX446]: the half-inhibitory concentration (IC50) lay within 100 to 1000 nM.

With `COc1cccc2c1Sc1ccccc1C=C2OP(=O)(O)OC1C(C)CCCC1C` (stereo not drawn) [LSX446-2], the half-maximal inhibitory concentration (IC50) was 1000 to 10000 nM.

For `COc1cccc2c1Sc1ccccc1C=C2OP(=O)(O)OCCCNC(=O)CC[C@@H](C)[C@H]1CC[C@H]2[C@@H]3[C@H](O)C[C@@H]4C[C@H](O)CC[C@]4(C)[C@H]3C[C@H](O)[C@]12C` [LSX784], the IC50 is 1000 to 10000 nM.

Turning to `CC1(C)[C@@H]2CC[C@@]1(C)[C@@H](OP(=O)(O)OC1=Cc3c(Cl)cccc3Sc3ccccc31)C2` [LSX476c], the IC50 is 100 to 1000 nM.

Regarding `COc1cccc2c1Sc1ccccc1C=C2OP(=O)(O)O[C@@H]1CC[C@@]2(C)C(C1)C[C@@H](O)[C@H]1[C@@H]3CC[C@H]([C@H](C)CCC(=O)O)[C@@]3(C)CC[C@@H]12` (stereo partly drawn) [LSX710], the IC50 lay in the range of 100 to 1000 nM.

Turning to `COc1cccc2c1Sc1ccccc1C=C2OP(=O)(O)OC12CC3CC(C1)C(Nc1ncnc4[nH]ccc14)C(C3)C2` (stereo not drawn) [LSX602], the half-maximal inhibitory concentration (IC50) was below 100 nM.

Regarding `COc1cccc2c1Sc1ccccc1C=C2OP(=O)(O)O[C@@H]1C[C@H](C)CC[C@H]1C(C)C` [LSX474a], the half-inhibitory concentration (IC50) is below 100 nM.

Take `CC1(C)[C@H]2CC[C@]1(C)[C@H](OP(=O)(O)OC1=Cc3ccccc3Sc3ccccc31)C2` [LSX442a]: the concentration for half-maximal inhibition (IC50) was 100 to 1000 nM.

The assay is the same for the next values; noted with them: read-out: IC50.
In the case of `COc1cccc2c1Sc1ccccc1C=C2OP(=O)(O)OC1COC(C)(C)C1` (stereo not drawn) [LSX434-2], the half-maximal inhibitory concentration (IC50) was in the range of 1000 to 10000 nM.

The record behind these values is patent publication US20240342201A1, “ASYMMETRIC GPR84 ANTAGONIST AND USE THEREOF” (priority 2021, published 2024).
